Article PMC7356104, “Oral Administration of Artemisone for the Treatment of Schistosomiasis: Formulation Challenges and In Vivo Efficacy” (Pharmaceutics, 2020)
Converted amounts (≈) assume the structure as drawn. Read-outs that look alike come from different tables or passages of the source.

Key:
S. mansoni = conditions: cited from earlier work
[1] = Storage stability of artemisone in SMEDDS and PBS at 30 °C (HPLC); assay type: physicochemical; conditions: 80 µg/mL in PBS pH 6.5, 30 °C, light exclusion
Method: (§1) Artemisone was quantified with high-performance liquid chromatography (HPLC) (Agilent/HP 1100 HPLC series, high-pressure pump, degasser, UV-VIS detector and autosampler, now Agilent Technologies, Inc., Santa Clara, CA, USA), using a method we developed and validated according to the ICH guidelines, over a range of 10–500 µg artemisone/mL (Table 1).
Artemisone (50 mg/g) was dissolved in SMEDDS-100. For SMEDDS-50-ART and SMEDDS-20-ART, PBS was added to the drug-loaded formulation to give the microemulsions, containing 25 mg/g and 10 mg/g artemisone, respectively. A solution of 80 µg/mL artemisone in PBS pH 6.5 Ph.Eur. was prepared and used as control, the pH found for SMEDDS-50 and SMEDDS-20 also being around 6.5. Triplicates of all three preparations were stored in glass vials with Teflon sealed lids at 30 °C under light exclusion. Samples were taken after 14, 28, 42, 56, and 92 days and analyzed via HPLC to monitor drug stability.

[2] = H2O; cited from earlier work
[3] = tested on: P. falciparum NF54 parasites; test: In vitro efficacy on P. falciparum in culture; assay type: cell-based, Plasmodium falciparum; conditions: 48 h
Method: P. falciparum NF54 parasites were cultivated at 4% hematocrit in RPMI 1640 medium, 0.5% Albumax II (Invitrogen, Carlsbad, CA, USA), 0.25% sodium bicarbonate, and 0.1 mg/mL gentamicin. 200 µL of parasite suspension at 1% parasitemia were incubated in a Nunc microplate, in 96 flat-bottom wells, at 37 °C, in an atmosphere of 5% oxygen, 5% carbon dioxide and 90% nitrogen. Drug dilutions were added in triplicates in 25 µL. After 48 h P. falciparum parasitaemias were estimated by microscopic determination of the percent of parasitized erythrocytes in a total of 5000 erythrocytes, using Giemsa stained blood smears that were prepared from triplicate individual wells.

[4] = Solubility of artemisone in organic solvents, excipients and SMEDDS (HPLC); assay type: physicochemical; conditions: thermodynamic from solid
Method: The solubility of artemisone in organic solvents and lipid excipients was determined according to the following procedure: 200 mg artemisone/1.0 mL excipient were placed on an orbital mixing heating plate (Torrey Pines Scientific, Carlsbad, CA, USA) at 25 °C for 24 h under light exclusion. Samples were centrifuged and the supernatant filtered and diluted with ethanol as necessary before HPLC analysis. Samples were prepared in triplicates.
as §1

[5] = set-up: method as in PMID 21596127; conditions: oral Pheroid technology formulation, mice; cited from earlier work
[6] = set-up: method as in earlier work; conditions: cited from earlier work
[7] = similar procedure (single oral dose)

C[C@H]1[C@H](OC(=O)CCC(=O)O)O[C@@H]2O[C@@]3(C)CC[C@H]4[C@H](C)CC[C@@H]1[C@@]24OO3 [artesunate]
reduction of worm load (S. mansoni; single oral dose 400 mg/kg in 3% ethanol and 7% Tween 80, 21 days post-infection): 66%

C[C@H]1[C@H](N2CCSCC2)O[C@@H]2O[C@@]3(C)CC[C@H]4[C@H](C)CC[C@@H]1[C@@]24OO3 [artemiside]
reduction of worm load (S. mansoni; [7]): more than 90%

C[C@H]1[C@H](N2CCS(=O)(=O)CC2)O[C@@H]2O[C@@]3(C)CC[C@H]4[C@H](C)CC[C@@H]1[C@@]24OO3 [artemisone, 4-[(1R,4S,5R,8S,9R,10R,12R,13R)-1,5,9-trimethyl-11,14,15,16-tetraoxatetracyclo-hexadecan-10-yl]-1,4-thiazinane1,1-dioxide]
artemisone recovered after three months [1]: 51.5 ± 0.4% | aqueous solubility [2]: 0.089 mg/mL (≈ 0.222 mM) | concentration at which parasitaemia was completely blocked [3]: below 11 ng/mL | ED50 ([3]; parasitaemia by Giemsa smears): 1 to 2 ng/mL | solubility at 24 h ([4]; oil or lipid, in Polysorb ID 46, 25 °C): 55 mg/mL (≈ 137 mM) | solubility at 24 h ([4]; oil or lipid, in medium chain mono- and diglycerides (Capmul MCM), 25 °C): 62.5 mg/mL (≈ 156 mM) | solubility at 24 h ([4]; oil or lipid, in medium chain triglycerides (MCT), 25 °C): 22.5 mg/mL (≈ 56 mM) | solubility at 24 h ([4]; organic solvent or mixture, in DMF, 25 °C): > 100 mg/mL | solubility at 24 h ([4]; organic solvent or mixture, in DMSO, 25 °C): > 100 mg/mL | solubility at 24 h ([4]; organic solvent or mixture, in acetone, 25 °C): > 100 mg/mL | solubility at 24 h ([4]; organic solvent or mixture, in dichloromethane, 25 °C): > 100 mg/mL | solubility at 24 h ([4]; organic solvent or mixture, in ethanol, 25 °C): 30 mg/mL (≈ 74.7 mM) | solubility at 24 h ([4]; organic solvent or mixture, in hexane, 25 °C): 0.8 mg/mL (≈ 1.99 mM) | solubility at 24 h ([4]; organic solvent or mixture, in methanol, 25 °C): 50 mg/mL (≈ 125 mM) | solubility at 24 h ([4]; organic solvent or mixture, in propylene glycol, 25 °C): 8.5 mg/mL (≈ 21.2 mM) | higher absorption of artemisone compared to an aqueous vehicle containing 10% DMSO [5]: 5.57 fold | degradation in aqueous medium ([6]; pH 3): complete degradation was observed within one week | intact compound remained after one month ([6]; pH 5): 20% | intact compound remained after one month ([6]; pH 7.4): 75% | reduction of worm load (S. mansoni; [7]): more than 90%

CO[C@H]1O[C@@H]2O[C@@]3(C)CC[C@H]4[C@H](C)CC[C@@H]([C@H]1C)[C@@]24OO3 [artemether]
reduction of worm load (S. mansoni; [7]): more than 90%
